Data as given in patent US8722665B2, “Cinnamido-pyrrolo[2,1-C][1,4]benzodiazepines as potential anticancer agents and process for the preparation thereof” (Council of Scientific & Industrial Research, priority 2008, dated 2014).

Key:
[1] = test system: duplex-form calf thymus DNA (CT-DNA); assay: Thermal denaturation studies with calf thymus DNA; type: binding; settings: [PBD]:[DNA] molar ratio 1:5, CT-DNA 100 μM, ligand 20 μM, pH 7.00
Method: Compounds have been subjected to thermal denaturation studies with duplex-form calf thymus DNA (CT-DNA) using an modification of a reported procedure (Newman, M. S. Carcinog-compr. Surv. 1976, 1, 203; (b) Hecht, S. S.; Loy, M.; Hoffman, Carcinog-compr. Surv. 1976, 1, 325). Working solutions in aqueous buffer (10 mM NaH2PO4/Na2HPO4, 1 mM Na2EDTA, pH 7.00+0.01) containing CT-DNA (100 μm in phosphate) and the PBD (20 μm) have been prepared by addition of concentrated PBD solutions in DMSO to obtain a fixed [PBD]/[DNA] molar ratio of 1:5. The DNA-PBD solutions have been incubated at 37° C. for 0 and 18 h prior to analysis. Samples have been monitored at 260 nm using a Beckman DU-800 spectrophotometer fitted with high performance temperature controller, and heated at 1° C. min^−1 in the 40-110° C. range. DNA helix→coil transition temperatures (Tm) have been obtained from the maxima in the d(A260)/dT derivative plots. Drug-induced alterations in DNA melting behavior are given by: ΔTm=Tm(DNA+PBD)−Tm(DNA alone), where the Tm value for the PBD-free CT-DNA is 69.1±0.01.
The DNA binding activity for these Cinnamido-pyrrolo[2,1-c][1,4]benzodiazepines have been examined by thermal denaturation studies using calf thymus (CT) DNA. […] The data for the compounds 8b&d, 11b&d, 14b&d and 17b&d is included in Table 1 for comparison.

[2] = test system: sixty human tumour cell lines; assay: In vitro cytotoxicity (SRB), mean graph midpoints; type: cell-based; settings: 48 h exposure
Method: The compounds were evaluated for in vitro anticancer activity against sixty human tumour cells derived from nine cancer types (leukemia, non-small-cell lung, colon, CNS, melanoma, ovarian, prostate, and breast cancer) as shown in Table 1a. For each compound, dose response curves for each cell line were measured at a minimum of five concentrations at 10 fold dilutions. A protocol of 48 h continuous drug exposure was used and a sulforhodamine B (SRB) protein assay was used to estimate cell viability or growth. The concentration causing 50% cell growth inhibition (GI50), total cell growth inhibition (TGI 0% growth) and 50% cell death (LC50, −50% growth) compared with the control was calculated. The Log10 GI50 (concentration in mol/L causing 50% growth inhibition) values for Cinnamido-pyrrolo[2,1-c][1,4]benzodiazepine (8b) is listed in Table 2.

`COc1cc(/C=C/C(=O)N2CCN(C(=O)c3cc(OC)c(OC)c(OC)c3)CC2)ccc1OCCCOc1cc2c(cc1OC)C(=O)N1CCC[C@H]1C=N2` [8b, 7-methoxy-8-{3-(2-methoxy-4-(E)-3-oxo-3-[4-(3,4,5-trimethoxybenzoyl)piperazino]-1-propenylphenoxy)propoxy}-(11aS)-2,3,5,11^a-tetrahydro-5H-pyrrolo[2,1-c][1,4]benzo-diazepine-5-one] was tested, and the “(ΔTm ° C.) after incubation at 37° C. for 0 h” value ([1]; 0 h incubation at 37° C.) was 1.2 °C, the “(ΔTm ° C.) after incubation at 37° C. for 18 h” value ([1]; 18 h incubation at 37° C.) was 2.1 °C and the “Log10 GI50 mean graph midpoint (MG_MID)” value [2] was −6.48 mol/L. The “Log10 LC50 mean graph midpoint (MG_MID)” value [2] was −4.5 and the “Log10 TGI mean graph midpoint (MG_MID)” value [2] was −5.59.
